{
  "source": "patent US10774122B2",
  "about": "“ERG targeted therapy” (The Regents of the University of Michigan, priority 2017, dated 2020)",
  "key": {"[1]": {"system": "VCaP cells", "assay_type": "cell-based", "method": "The samples were treated with SDS loading buffer supplied with 10 mM DTT for 5 min at 85° C. The proteins were alkylated by adding iodoacetamide to the final concentration of 15 mM. The samples were subjected to SDS-PAGE and the whole lanes were cut out and digested with trypsin in-gel for 2 hours. The resulting peptides were extracted, dried and resuspended in 0.1% formic acid with 5% acetonitrile prior to loading onto a trap EASY-column (Thermo Scientific) coupled to an in-house made nano HPLC column (20 cm×75 um) packed with LUNA C18 media. Analysis was performed on Velos Pro mass spectrometer (Thermo Scientific) operated in data-dependent mode using 90-min gradients in EASY-LC system (Proxeon) with 95% water, 5% acetonitrile (ACN), 0.1% formic acid (FA) (solvent A), and 95% ACN, 5% water, 0.1% FA (solvent B) at a flow rate of 220 nl/min. […]\nThe resulting spectrum files were transformed into MGF format by MSConvert software and interrogated by MASCOT 2.4 search engine using human UniProt database version 15 concatenated with reverse sequences for estimation of false discovery rate (FDR) and with a list of common contaminants. […] The peptide FDR was calculated as 2×(decoy_hits)/(target+decoy hits). Spectral counts for all detected proteins were assembled using an in-house written Python script. […]"}, "[2]": {"target": "T1, ERG:DNA-PKcs interaction (Homo sapiens, UniProt P11308)", "T1 sequence (P11308 33-479 limits assumed)": "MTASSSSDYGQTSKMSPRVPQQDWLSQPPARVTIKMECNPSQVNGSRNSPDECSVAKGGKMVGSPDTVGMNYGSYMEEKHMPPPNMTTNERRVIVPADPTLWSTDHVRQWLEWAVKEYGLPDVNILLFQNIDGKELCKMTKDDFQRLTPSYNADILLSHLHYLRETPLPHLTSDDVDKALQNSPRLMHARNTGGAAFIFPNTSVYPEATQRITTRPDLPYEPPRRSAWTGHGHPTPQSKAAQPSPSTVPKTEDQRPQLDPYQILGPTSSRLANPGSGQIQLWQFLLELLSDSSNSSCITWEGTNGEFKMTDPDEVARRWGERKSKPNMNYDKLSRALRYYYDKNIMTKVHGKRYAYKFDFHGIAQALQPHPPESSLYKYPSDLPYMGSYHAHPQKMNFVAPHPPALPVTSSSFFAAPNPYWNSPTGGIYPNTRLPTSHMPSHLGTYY", "details": "mouse, in vivo, 25 mg/kg", "quoted_text": "Cell pellets or tumors treated with or without the peptidomimetics were lysed in cell lysis buffer (20 mM MOPS, pH 7.0, 2 mM EGTA, 5 mM EDTA, 30 mM sodium fluoride, 60 mM β-glycerophosphate, 20 mM sodium pyrophosphate, 1 mM sodium orthovanadate, 1% Triton X-100, 1 mM DTT, protease inhibitor cocktail (Roche)). Cell lysates (0.5-1.0 mg) were pre-cleaned with protein A/G agarose beads (Santa Cruz) by incubation for 1 hour with shaking at 4° C. followed by centrifugation at 2000 rpm for 3 minute. Lysates were then incubated with 2 μg ERG antibody (Santa Cruz, C-17) at 4° C. for 4 hours with shaking prior to addition of 20 μl protein A/G agarose beads and incubated at 4° C. overnight. […] Samples were then analyzed by SDS-PAGE and Western blot analysis as described above.\nVCaP xenografted mice were injected with a single dose of 25 mg/kg biotinylated RI-EIP1 and serum and tumors were collected at varying time intervals as indicated."}, "[3]": {"system": "VCaP (ERG fusion-positive) xenografts", "test": "VCaP xenograft mouse model, tumor growth", "quoted_text": "Athymic Nude-Foxnlnu male mice were procured from Harlan Laboratories, Inc (Indianapolis, Ind.). All procedures involving mice were approved by the University Committee on Use and Care of Animals (UCUCA) at the University of Michigan and conformed to their relevant regulatory standards. […] Statistical significance for Kaplan-Meier analysis was determined by the log-rank (Mantel-Cox) test.\nAthymic Nude-Foxnlnu male mice were procured from Harlan Laboratories, Inc. (Indianapolis, Ind.). VCaP (2×10^6 cells) or PC3 (5×10^5 cells) were resuspended in 100 μl of saline with 50% Matrigel (BD Biosciences, Becton Drive, NJ) and implanted subcutaneously into the flank regions on both sides of the mice. Mice were anesthetized using a cocktail of xylazine (80-120 mg/kg, IP) and ketamine (10 mg/kg, IP) for chemical restraint before tumor cells implantation. For short term assays, all tumors were staged for three weeks before starting peptidomimetic treatment. After week 3 (VCaP cells) or 12 days (PC3 cells), mice (10 per treatment group) were treated with peptidomimetics (25 mg/kg or 10 mg/kg as indicated, IP) daily five times a week.\nTumor growth was recorded every three days using digital calipers and tumor volumes were calculated using the formula (π/6) (L×W2), where L=length of tumor and W=width. Body weight was monitored weekly over the course of the study. At the end of the xenograft studies, mice were anaesthetized and blood was collected by cardiac puncture and tumors were preserved for further biochemical and immunofluorescence analysis. […] Survival analysis was carried out using the GraphPad Prism 4.0 software (GraphPad Software, San Diego, Calif.). Statistical significance for Kaplan-Meier analysis was determined by the log-rank (Mantel-Cox) test. All procedures involving mice were approved by the University Committee on Use and Care of Animals (UCUCA) at the University of Michigan and conform to their relevant regulatory standards."}},
  "note": "Where a SMILES comes first, the peptide text is derived from it. [ ]: non-standard residue; d: D form.",
  "data": [
    {"smiles": "CC(C)C[C@@H](NC(=O)[C@H]1CCCN1C(=O)[C@H]1CCCN1C(=O)[C@@H](Cc1ccc(O)cc1)NC(=O)[C@@H](CC(C)C)NC(=O)[C@@H](Cc1ccccc1)NC(=O)[C@H](NC(=O)CNC(=O)CNC(=O)[C@@H](CCCNC(=N)N)NC(=O)[C@@H](CCCCN)NC(=O)[C@@H](CCCCN)NC(=O)[C@@H](CCCNC(=N)N)NC(=O)[C@@H](CCCNC(=N)N)NC(=O)[C@@H](CCC(N)=O)NC(=O)[C@@H](CCCNC(=N)N)NC(=O)[C@@H](CCCNC(=N)N)NC(=O)[C@@H](CCCNC(=N)N)NC(=O)CN)[C@H](C)O)C(=O)O", "note": "[RI-EIP1] (H-G[dR][dR][dR][dQ][dR][dR][dK][dK][dR]GG[dT][dF][dL][dY][dP][dP][dL]-OH)", "values": [
      {"measurement": "depletion of ERG among 3020 proteins identified", "setting": "[1]", "value": "most significantly depleted"},
      {"measurement": "ERG:DNA-PKcs interaction in VCaP xenograft tumors", "setting": "[2]", "value": "blocked"},
      {"measurement": "recurrences after additional 30 days without therapy", "setting": "[3]; 25 mg/kg group", "value": "no recurrences were observed"},
      {"measurement": "tumors completely regressed with no palpable tumor", "setting": "[3]; 25 mg/kg, day 18", "value": 10, "unit": "%"},
      {"measurement": "tumors with no signs of recurrence", "setting": "[3]; 25 mg/kg, extended treatment, day 30", "value": 35, "unit": "%"},
      {"measurement": "tumor growth, additional VCaP xenograft studies", "setting": "[3]; 1, 5 and 25 mg/kg, effect at 25 mg/kg relative to control", "value": "significant suppression"},
      {"measurement": "VCaP tumor growth", "setting": "[3]; 10 or 25 mg/kg per day, day 18, relative to mutant peptide, p<0.01", "value": "dose-dependent reduction"}
    ]}
  ]
}
